In patent US10118928B2, “Treatment of H. pylori infections using MTAN inhibitors” (ALBERT EINSTEIN COLLEGE OF MEDICINE, INC., priority 2014, dated 2018):

test system: H. pylori; test: MIC90 against H. pylori, growth on tryptic soy agar with 5% horse blood; type: cell-based; set-up: unit not given here; conditions: Table 1; 72 h, microaerophilic, 37° C.
Description: Bacterial Growth. H. pylori were grown for 72 hours under microaerophilic condition (5% O2, 10% CO2 and 85% N2) at 37° C. on tryptic soy agar with 5% horse blood. To determine the MIC values, the test substance was added to the gel solution right before pouring. To compare the zones of inhibition, specific antibiotics were added to the center of disc after spreading H. pylori, and then H. pylori was allowed to grow for 72 hours under microaerophilic condition at 37° C.

MIC90 against H. pylori | SMILES
>80 | CSC[C@H](O)[C@H](CO)NCc1c[nH]c2c(N)ncnc12
>80 | CC(C)[C@@H](CO)NCc1c[nH]c2c(N)ncnc12
>80 | CSC[C@@H](O)[C@@H](CO)NCc1c[nH]c2c(N)ncnc12
8 | CCCCCC[C@@H](CO)NCc1c[nH]c2c(N)ncnc12
>80 | CC[C@@H](CO)NCc1c[nH]c2c(N)ncnc12
80 | CCCCCCCCC[C@@H](CO)NCc1c[nH]c2c(N)ncnc12
>80 | Nc1ncnc2c(CN[C@H](CO)CSc3ccc(Cl)cc3)c[nH]c12
>80 | C[C@@H](CO)NCc1c[nH]c2c(N)ncnc12
>80 | CSC[C@@H](CO)NCc1c[nH]c2c(N)ncnc12
>80 | Nc1ncnc2c(CN[C@H](CO)c3ccccc3)c[nH]c12
>80 | CCCC[C@H](CO)NCc1c[nH]c2c(N)ncnc12
40 | CCC[C@@H](CO)NCc1c[nH]c2c(N)ncnc12
>80 | CSC[C@H](CO)NCc1c[nH]c2c(N)ncnc12
16 | CCCCSC[C@@H](CO)NCc1c[nH]c2c(N)ncnc12
8 | CCCCC[C@@H](CO)NCc1c[nH]c2c(N)ncnc12
>80 | CC[C@H](C)[C@@H](CO)NCc1c[nH]c2c(N)ncnc12
>80 | CC(C)C[C@@H](CO)NCc1c[nH]c2c(N)ncnc12
8 | Nc1ncnc2c(CN[C@H](CO)CSc3cnccn3)c[nH]c12
>80 | Nc1ncnc2c(CN[C@H](CO)CSCc3ccccc3)c[nH]c12
16 | CCCC[C@@H](CO)NCc1c[nH]c2c(N)ncnc12
80 | CCCCCCCSC[C@@H](CO)NCc1c[nH]c2c(N)ncnc12

SMILES | MIC90 against H. pylori
Nc1ncnc2c(CN[C@H](CO)Cc3c[nH]cn3)c[nH]c12 | >80

same assay, conditions: Table 2; 72 h, microaerophilic, 37° C.

MIC90 against H. pylori | SMILES
>80 | CCCCCCCCNCc1c[nH]c2c(N)ncnc12
>80 | Nc1ncnc2c(CNCCO)c[nH]c12
